The nature of data set [1]: Metabolic stability in mouse liver assessed as intrinsic clearance at 1 uM measured up to 60 mins by LC-MS/MS analysis. Conditions: read-out: CLH. The data set is classed as ADME, tissue-based.
In data set [2] the test system is Enterococcus faecalis. The experiment in a line: Antibacterial activity against Enterococcus faecalis assessed as inhibition of bacterial growth incubated for 20 to 24 hrs by microbroth serial dilution method. The format is functional. Conditions: time 20-24 hrs, read-out: MIC100. On the technique in general: Dilution methods test growth across graded concentrations, often in twofold steps.

Data set [3] has as its system Staphylococcus aureus. The experiment in a line: Antibacterial activity against methicillin susceptible Staphylococcus aureus ATCC 25923 assessed as inhibition of bacterial growth incubated for 20 to 24 hrs by microbroth serial dilution method. The format is functional. Conditions: time 20-24 hrs, read-out: MIC100.
For data set [4], the system named is Streptococcus pneumoniae. The experiment in a line: Antibacterial activity against Streptococcus pneumoniae assessed as inhibition of bacterial growth incubated for 20 to 24 hrs by microbroth serial dilution method. The format is functional. The settings on record: time 20-24 hrs, read-out: MIC100.
The subject of data set [5] is Staphylococcus aureus. Briefly: Antibacterial activity against methicillin resistant Staphylococcus aureus clinical isolate 55508 assessed as inhibition of bacterial growth incubated for 20 to 24 hrs by microbroth serial dilution method. The format is functional. The settings on record: time 20-24 hrs, read-out: MIC100.
In data set [6] the test system is Staphylococcus aureus. The experiment in a line: Antibacterial activity against methicillin resistant Staphylococcus aureus USA300 FPR3757 assessed as inhibition of bacterial growth incubated for 20 to 24 hrs by microbroth serial dilution method. The data set is classed as functional. Conditions: time 20-24 hrs, read-out: MIC100.
The test system of data set [7] is Staphylococcus aureus. Briefly: Antibacterial activity against methicillin resistant Staphylococcus aureus clinical isolate 933010 assessed as inhibition of bacterial growth incubated for 20 to 24 hrs by microbroth serial dilution method. The data set is classed as functional. The settings on record: time 20-24 hrs, read-out: MIC100.
For data set [8], the system named is Staphylococcus aureus. The experiment in a line: Antibacterial activity against methicillin resistant Staphylococcus aureus clinical isolate 52518 assessed as inhibition of bacterial growth incubated for 20 to 24 hrs by microbroth serial dilution method. The format is functional. The settings on record: time 20-24 hrs, read-out: MIC100.
Data set [9] relates to Caco-2. Briefly: Cytotoxicity against human Caco-2 cells assessed as reduction in cell viability at 1 to 10 uM measured after 1 to 8 days by Celltiter-Glo reagent based assay. The format is toxicity. Conditions: caco-2, 10 µM, dose lower 1 µM, time lower 1 day, dose upper 10 µM, time upper 8 day.
The nature of data set [10]: Metabolic stability in human liver microsomes assessed as half-life at 1 uM measured up to 30 mins by LC-MS/MS analysis. The data set is classed as ADME, Microsome. A general note: Liver microsomes are vesicles of endoplasmic reticulum, rich in cytochrome P450 enzymes.
Data set [11] relates to Enterococcus faecium. Briefly: Antibacterial activity against vancomycin, ampicillin and ciprofloxacin resistant Enterococcus faecium clinical isolate 5 assessed as inhibition of bacterial growth incubated for 20 to 24 hrs by microbroth serial dilution method. The data set is classed as functional. Conditions: time 20-24 hrs, read-out: MIC100.
In data set [12] the test system is Staphylococcus aureus. Briefly: Antibacterial activity against mupirocin resistant Staphylococcus aureus 4828 assessed as inhibition of bacterial growth incubated for 20 to 24 hrs by microbroth serial dilution method. The data set is classed as functional. Conditions: time 20-24 hrs, read-out: MIC100.
The subject of data set [13] is DU-145. Briefly: Cytotoxicity against human DU-145 cells assessed as reduction in cell viability at 1 to 10 uM measured after 3 hrs by Celltiter-Glo reagent based assay. The data set is classed as toxicity. Conditions: du-145, 3 h, dose 1-10 µM. (In general: ATP-based viability assays read luminescence as a measure of living cells.)
Data set [14] concerns MDCK-MDR1. Briefly: Cytotoxicity against MDCKII-MDR1 cells assessed as reduction in cell viability at 1 to 10 uM measured after 3 hrs by Celltiter-Glo reagent based assay. The settings on record: dog, mdck-mdr1, 3 h, dose 1-10 µM. The format is toxicity, Canis lupus familiaris.
Data set [15] can be described thus: Metabolic stability in mouse liver microsomes assessed as half-life at 1 uM measured up to 60 mins by LC-MS/MS analysis. The data set is classed as ADME, Microsome.
In data set [16] the test system is Enterococcus faecium. The experiment in a line: Antibacterial activity against vancomycin, ampicillin and ciprofloxacin resistant Enterococcus faecium clinical isolate 1 assessed as inhibition of bacterial growth incubated for 20 to 24 hrs by microbroth serial dilution method. The format is functional. Conditions: time 20-24 hrs, read-out: MIC100.
For data set [17], the system named is Staphylococcus aureus. The experiment in a line: Antibacterial activity against methicillin susceptible Staphylococcus aureus ATCC 29213 assessed as inhibition of bacterial growth incubated for 20 to 24 hrs by microbroth serial dilution method. The format is functional. The settings on record: time 20-24 hrs, read-out: MIC100.
Data set [18] in a line: Metabolic stability in human liver assessed as intrinsic clearance at 1 uM measured up to 30 mins by LC-MS/MS analysis. The data set is classed as ADME, tissue-based. Conditions: read-out: CLH.
Data set [19] deals with Staphylococcus aureus. The experiment in a line: Antibacterial activity against Staphylococcus aureus ATCC 29213 infected in skin infection female BALB/cJRj mouse model assessed as reduction in bacterial load in wound at 2 % administered twice daily at 6 hrs interval as cream formulation and measured on day 1. Conditions: route top, time 1 day. The format is functional.

Data set [20] has as its system Staphylococcus aureus. Briefly: Antibacterial activity against Staphylococcus aureus ATCC 29213 infected in skin infection female BALB/cJRj mouse model assessed as reduction in bacterial load in wound at 2 % administered twice daily at 6 hrs interval as cream formulation and measured on day 5. The data set is classed as functional. Conditions: route top.
Data set [21] relates to Staphylococcus aureus. Briefly: Antibacterial activity against Staphylococcus aureus ATCC 29213 infected in skin infection female BALB/cJRj mouse model assessed as reduction in bacterial load in wound at 2 % administered twice daily at 6 hrs interval as cream formulation and measured on day 4 (reference value: 5.3 x 10^3 CFU/ml). The format is functional. The settings on record: route top, time 4 day.

Data set [22] in a line: Toxicity in female BALB/cJRj mouse model of skin infection infected with Staphylococcus aureus ATCC 29213 assessed as skin toxicity at 2 % administered twice daily at 6 hrs interval as cream formulation and measured on day 4. The settings on record: in vivo, topical_or_ocular, 96 h, route top, time 4 day.
Data set [23] in a line: Toxicity in female BALB/cJRj mouse model of skin infection infected with Staphylococcus aureus ATCC 29213 assessed as skin irritation at 2 % administered twice daily at 6 hrs interval as cream formulation and measured on day 4. Conditions: in vivo, topical_or_ocular, 96 h, route top, time 4 day.

Converted amounts (≈) assume the structure as drawn. The source made the active and inactive calls. No cut-off for these calls is given here.

With `C=C[C@]1(C)C[C@@H](OC(=O)Cn2cc(-c3cncc(NC(=O)c4cnc(OC)cn4)c3)nn2)[C@]2(C)[C@H](C)CC[C@]3(CCC(=O)[C@H]32)[C@@H](C)[C@@H]1O`, the CLint scaled at 1 µM in [1] was more than 600 L/h/kg; in data set [18] it was 65.4 L/h/kg. The MIC in data set [2] was 0.12 µg/mL (≈ 0.182 µM); in data set [3] it was 0.12 µg/mL (≈ 0.182 µM); in data set [4] it was 1 µg/mL (≈ 1.52 µM); in [5], 0.12 µg/mL (≈ 0.182 µM); in data set [6], 0.06 µg/mL (≈ 0.0912 µM); in [7] it was 0.12 µg/mL (≈ 0.182 µM). Also, the MIC in data set [8] was 0.06 µg/mL (≈ 0.0912 µM); in data set [11], 0.06 µg/mL (≈ 0.0912 µM); in data set [12] it was 0.12 µg/mL (≈ 0.182 µM); in data set [16], 0.06 µg/mL (≈ 0.0912 µM); in data set [17], 0.06 µg/mL (≈ 0.0912 µM). Besides, the Activity result in [9], in data set [13] and in [14] was “Non-toxic” in each case. The half-life at 1 µM came out at 5.7 min in data set [10] and 0.53 min in [15].
With `CC(=O)O[C@H]1C[C@@]2(C)[C@@H](C[C@@H](O)[C@H]3[C@@]4(C)CC[C@@H](O)[C@@H](C)[C@@H]4CC[C@@]32C)/C1=C(\CCC=C(C)C)C(=O)O` [FUSIDIC ACID], the MIC in [3] was determined as 0.12 µg/mL (≈ 0.232 µM); in data set [6], 0.25 µg/mL (≈ 0.484 µM); in [17] it was 0.015 µg/mL (≈ 0.029 µM). The values for the Activity in data set [19] and in data set [21] were 4.8 10^4CFU/ml and 2.5 log10CFU/ml, respectively. Besides, the result in data set [20] (time 5.0 day) was Active.
For the molecule `C=C[C@]1(C)C[C@@H](OC(=O)Cn2cc(-c3cncc(C(=O)Nc4ccc(OC)nc4)c3)nn2)[C@]2(C)[C@H](C)CC[C@]3(CCC(=O)[C@H]32)[C@@H](C)[C@@H]1O`, the CLint scaled at 1 µM in data set [1] amounted to 566 L/h/kg; in [18], 164 L/h/kg. Further, the MIC in data set [2] amounted to 0.12 µg/mL (≈ 0.183 µM); in data set [3], 0.12 µg/mL (≈ 0.183 µM); in data set [4], 0.5 µg/mL (≈ 0.761 µM); in data set [5] it was 0.06 µg/mL (≈ 0.0914 µM); in data set [6], 0.03 µg/mL (≈ 0.0457 µM); in data set [7], 0.06 µg/mL (≈ 0.0914 µM). Further, the MIC in [8] was 0.06 µg/mL (≈ 0.0914 µM); in data set [11], 0.12 µg/mL (≈ 0.183 µM); in [12], 0.03 µg/mL (≈ 0.0457 µM); in [16], 0.12 µg/mL (≈ 0.183 µM); in data set [17], less than 0.015 µg/mL. Further, the Activity entry in [9], in [13] and in data set [14] was “Non-toxic” in each case. Besides, the half-life at 1 µM in data set [10] is 2.3 min; in data set [15] it was 0.58 min.
`C=C[C@]1(C)C[C@@H](OC(=O)Cn2cc(-c3cccc(Nc4cc(N)ncn4)c3)nn2)[C@]2(C)[C@H](C)CC[C@]3(CCC(=O)[C@H]32)[C@@H](C)[C@@H]1O`: the CLint scaled at 1 µM amounted to 434 L/h/kg in data set [1] and 94.9 L/h/kg in data set [18]. Moreover, the MIC in data set [2] came out at 0.5 µg/mL (≈ 0.815 µM); in data set [3], 0.25 µg/mL (≈ 0.407 µM); in [4], 1 µg/mL (≈ 1.63 µM); in data set [5], 0.12 µg/mL (≈ 0.196 µM); in data set [6], 0.03 µg/mL (≈ 0.0489 µM); in [7] it was 0.12 µg/mL (≈ 0.196 µM). Further, the MIC in [8] is 0.06 µg/mL (≈ 0.0978 µM); in data set [11] it was 0.25 µg/mL (≈ 0.407 µM); in data set [12] it was 0.12 µg/mL (≈ 0.196 µM); in data set [16] it was 0.25 µg/mL (≈ 0.407 µM); in data set [17] it was 0.015 µg/mL (≈ 0.0244 µM). For the same molecule, the Activity result in [9], in data set [13] and in [14] was “Non-toxic” throughout. The half-life at 1 µM in data set [10] was 3.9 min; in data set [15], 0.76 min.
For the molecule `C=C[C@]1(C)C[C@@H](OC(=O)Cn2cc(-c3ccc(Cn4ccc5c(N)ncnc54)nc3)nn2)[C@]2(C)[C@H](C)CC[C@]3(CCC(=O)[C@H]32)[C@@H](C)[C@@H]1O`, the results for the CLint scaled at 1 µM in data set [1] and in data set [18] were 566 L/h/kg and 199 L/h/kg, respectively. For the same molecule, the MIC was 0.06 µg/mL (≈ 0.0919 µM) in data set [3]; less than 0.015 µg/mL in data set [5]; 0.015 µg/mL (≈ 0.023 µM) in data set [6]; 0.03 µg/mL (≈ 0.046 µM) in [7]; less than 0.015 µg/mL in [8]; 0.03 µg/mL (≈ 0.046 µM) in [11]. Moreover, the MIC in data set [12] was less than 0.015 µg/mL; in data set [16] it was 0.015 µg/mL (≈ 0.023 µM); in [17], 0.015 µg/mL (≈ 0.023 µM). Moreover, the Activity result is “Non-toxic” in data set [22]; “Non-toxic” in data set [9]; “Non-toxic” in [13]; 5.4 10^5CFU/ml in data set [19]; “Non-toxic” in data set [23]; “Non-toxic” in data set [14]. The Activity in data set [20] (time 5 day) is 1.5 10^7CFU/ml; in data set [21] it was 2.5 log10CFU/ml. The results for the half-life at 1 µM in data set [10] and in data set [15] were 1.9 min and 0.58 min, respectively.

The half-life is how long it takes for the measured level to halve.

These data come from ChEMBL document CHEMBL6134887, “Linker and Head-Group Exploration of Anti-MRSA Triaromatic Pleuromutilins” (J Med Chem, 2025).
